From US11597919B2, “Systems, methods and compositions for sequence manipulation with optimized functional CRISPR-Cas systems” (The Broad Institute, Inc., priority 2013, dated 2023)

How the values were obtained:
[1] = system: RNA; conditions: cited from earlier work
[2] = system: HEK 293FT cells; test: Nuclease and double-nicking activity of potential nickases, SURVEYOR analysis (Example 10); type: cell-based, human; conditions: 400 ng nickase, 100 ng sgRNA
Description: Nuclease and double-nicking activities for all potential nickases were tested in HEK 293FT cells as follows: co-transfection of 400 ng of nickase and 100 ng of U6-driven sgRNA (100 ng for one guide, or 50 ng each for a pair of sgRNAs) by Lipofectamine 2000 into ˜200,000 cells. DNAs from transfected cells were collected for SURVEYOR analysis.

[3] = system: A375 melanoma cell line (BRAF V600E); conditions: cited from earlier work
[4] = system: human EMX1 locus; test: Sequencing of amplicons containing the EMX1 target locus; type: cell-based; conditions: 327 amplicons
Description: HEK 293FT or N2A cells were transfected with plasmid DNA as described above. After transfection, the cells were incubated at 37° C. for 72 hours before genomic DNA extraction. Genomic DNA was extracted using the QuickExtract DNA extraction kit (Epicentre) following the manufacturer's protocol. Briefly, cells were resuspended in QuickExtract solution and incubated at 65° C. for 15 minutes and 98° C. for 10 minutes. Extracted genomic DNA was immediately processed or stored at −20° C.
Since DSBs in mammalian nuclei are partially repaired by the non-homologous end joining (NHEJ) pathway, which leads to the formation of indels, the Surveyor assay was used to detect potential cleavage activity at the target EMX1 locus (FIG. 7) (see e.g. Guschin et al., 2010, Methods Mol Biol 649: 247). Co-transfection of all four CRISPR components was able to induce up to 5.0% cleavage in the protospacer (see FIG. 2D). […] Removing any of the remaining three components abolished the genome cleavage activity of the CRISPR system (FIG. 2D). Sanger sequencing of amplicons containing the target locus verified the cleavage activity: in 43 sequenced clones, 5 mutated alleles (11.6%) were found. Similar experiments using a variety of guide sequences produced indel percentages as high as 29% (see FIGS. 3-6, 10, and 11).

[5] = system: human EMX1 locus; test: Surveyor assay for genome modification at the human EMX1 locus in HEK 293FT cells; type: cell-based; conditions: co-expression with EMX1-targeting chimeric crRNA; n=3
Description: Cells were transfected using Lipofectamine 2000 (Life Technologies) following the manufacturer's recommended protocol. For each well of a 24-well plate a total of 800 ng of plasmids were used.
Genomic DNA was extracted using the QuickExtract DNA extraction kit (Epicentre) following the manufacturer's protocol. […] Extracted genomic DNA was immediately processed or stored at −20° C.
The genomic region surrounding a CRISPR target site for each gene was PCR amplified, and products were purified using QiaQuick Spin Column (Qiagen) following manufacturer's protocol. A total of 400 ng of the purified PCR products were mixed with 2 μl 10× Taq polymerase PCR buffer (Enzymatics) and ultrapure water to a final volume of 20 μl, and subjected to a re-annealing process to enable heteroduplex formation: 95° C. for 10 min, 95° C. to 85° C. ramping at −2° C./s, 85° C. to 25° C. at −0.25° C./s, and 25° C. hold for 1 minute. After re-annealing, products were treated with Surveyor nuclease and Surveyor enhancer S (Transgenomics) following the manufacturer's recommended protocol, and analyzed on 4-20% Novex TBE poly-acrylamide gels (Life Technologies). Gels were stained with SYBR Gold DNA stain (Life Technologies) for 30 minutes and imaged with a Gel Doc gel imaging system (Bio-rad). Quantification was based on relative band intensities, as a measure of the fraction of cleaved DNA.

[6] = system: target DNA with 5′-NGG PAM; test: Cleavage of target DNA bearing 5′-NGG PAM by PI domain chimeras (Example 12); type: cell-based, human; conditions: 5′-GGGCT
Description: Cells were transfected using Lipofectamine 2000 (Life Technologies) at 70-80% confluency following the manufacturer's recommended protocol.
Genomic DNA was extracted using the QuickExtract DNA Extraction Solution (Epicentre) following the manufacturer's protocol.
400 ng total of the purified PCR products were mixed with 2 μl 10× Taq DNA Polymerase PCR buffer (Enzymatics) and ultrapure water to a final volume of 20 μl, and subjected to a re-annealing process to enable heteroduplex formation: 95° C. for 10 min, 95° C. to 85° C. ramping at −2° C./s, 85° C. to 25° C. at −0.25° C./s, and 25° C. hold for 1 min. After re-annealing, products were treated with SURVEYOR nuclease and SURVEYOR enhancer S (Transgenomics) following the manufacturer's recommended protocol, and analyzed on 4-20% Novex TBE poly-acrylamide gels (Life Technologies). Gels were stained with SYBR Gold DNA stain (Life Technologies) for 30 min and imaged with a Gel Doc gel imaging system (Bio-rad). Quantification was based on relative band intensities. Indel percentage was determined by the formula, 100×(1−(1−(b+c)/(a+b+c))^1/2), where a is the integrated intensity of the undigested PCR product, and b and c are the integrated intensities of each cleavage product.

In the case of “N55K mutant: N55K mutant of the MS2 bacteriophage coat protein”, the binding affinity [1] is listed as “higher binding affinity than wild type MS2”.

In the case of “Cbh-hSpCas9(D10A)-NLS: SpCas9 RuvCI mutant D10A, homology set”, the “Functional?” value [2] is reported as “nickase activity”.

For CCCS(=O)(=O)Nc1ccc(F)c(C(=O)c2c[nH]c3ncc(Cl)cc23)c1F [PLX4720], the “sensitivity of cell line to BRAF inhibitor” value [3] is listed as “naturally sensitive”.

For “SpCas9n: SpCas9 with aspartate-to-alanine substitution (D10A) in the RuvC I catalytic domain, a nickase”, the “indels detected by sequencing” value [4] was “did not detect any indels” and the “indels at the EMX1 protospacer target” value [5] was “does not generate indels”.

For “Cbh-hSpCas9(H840A)-NLS: SpCas9 HNH mutant H840A, homology set”, the “Functional?” value [2] was “no activity”.

B1: Sp-St3Cas9: SpCas9 with the PI domain of St3Cas9, SEQ ID NO: 121 (protein)
chain: MDYKDHDGDYKDHDIDYKDDDDKMAPKKKRKVGIHGVPAADKKYSIGLDIGTNSVGWAVITDEYKVPSKKFKVLGNTDRHSIKKNLIGALLFDSGETAEATRLKRTARRRYTRRKNRICYLQEIFSNEMAKVDDSFFHRLEESFLVEEDKKHERHPIFGNIVDEVAYHEKYPTIYHLRKKLVDSTDKADLRLIYLALAHMIKFRGHFLIEGDLNPDNSDVDKLFIQLVQTYNQLFEENPINASGVDAKAILSARLSKSRRLENLIAQLPGEKKNGLFGNLIALSLGLTPNFKSNFDLAEDAKLQLSKDTYDDDLDNLLAQIGDQYADLFLAAKNLSDAILLSDILRVNTEITKAPLSASMIKRYDEHHQDLTLLKALVRQQLPEKYKEIFFDQSKNGYAGYIDGGASQEEFYKFIKPILEKMDGTEELLVKLNREDLLRKQRTFDNGSIPHQIHLGELHAILRRQEDFYPFLKDNREKIEKILTFRIPYYVGPLARGNSRFAWMTRKSEETITPWNFEEVVDKGASAQSFIERMTNFDKNLPNEKVLPKHSLLYEYFTVYNELTKVKYVTEGMRKPAFLSGEQKKAIVDLLFKTNRKVTVKQLKEDYFKKIECFDSVEISGVEDRFNASLGTYHDLLKIIKDKDFLDNEENEDILEDIVLTLTLFEDREMIEERLKTYAHLFDDKVMKQLKRRRYTGWGRLSRKLINGIRDKQSGKTILDFLKSDGFANRNFMQLIHDDSLTFKEDIQKAQVSGQGDSLHEHIANLAGSPAIKKGILQTVKVVDELVKVMGRHKPENIVIEMARENQTTQKGQKNSRERMKRIEEGIKELGSQILKEHPVENTQLQNEKLYLYYLQNGRDMYVDQELDINRLSDYDVDHIVPQSFLKDDSIDNKVLTRSDKNRGKSDNVPSEEVVKKMKNYWRQLLNAKLITQRKFDNLTKAERGGLSELDKAGFIKRQLVETRQITKHVAQILDSRMNTKYDENDKLIREVKVITLKSKLVSDFRKDFQFYKVREINNYHHAHDAYLNAVVGTALIKKYPKLESEFVYGDYKVYDVRKMIAKSEQEIGKATAKYFFYSNIMNFFKTEITLANGEIRKRPLIETNGETGEIVWDKGRDFATVRKVLSMPQVNIVKKTVEEQNHGLDRGKPKGLFNANLSSKPKPNSNENLVGAKEYLDPKKYGYGGYAGISNSFTVLVKGTIEKGAKKKITNVLEFQGISILDRINYRKDKLNFLLEKGYKDIELIIELPKYSLFELSDGSRRMLASILSTNNKRGEIHKGNQIFLSQKFVKLLYHAKRISNTINENHRKYVENHKKEFEELFYYILEFNENYVGAKKNGKLLNSAFQSWQNHSIDELCSSFIGPTGSERKGLFELTSRGSAADFEFLGVKIPRYRDYTPSSLLKDATLIHQSVTGLYETRIDLAKLGEGKRPAATKKAGQAKKKK
In the case of B1, the “cleavage of target DNA with 5′-NGG PAM” value [6] is reported as “retained cleavage activity for the target DNA with 5′-NGG PAM, albeit at a lower level than that of SpCas9”.
